Tests used:
Assay type in all cases: cell-based
LNCaP = test: Cell growth inhibition assay, prostate cancer cell line LNCaP (medium with 10 ng/mL IL-6); details: Homo sapiens, medium supplemented with 10 ng/mL of IL-6, 10,000 cells/well
MDA-MB-231 = test: Cell growth inhibition assay, breast cancer cell line MDA-MB-231; details: Homo sapiens; MDA-MB-231 breast cancer cell line, 5,000 cells/well
Experimental: The inhibitory effects of the compounds of the present invention against the growth of cancer cells were evaluated as shown below. The cancer cell lines including stomach cancer cell line (AGS), breast cancer cell lines (MDA-MB-231, MDA-MB-468, and BT-549), prostate cancer cell lines (LNCaP and DU-145), colon cancer cell line (HCT116), ovarian cancer cell line (SW626), liver cancer cell line (Hep3B), kidney cancer cell line (ACHN), lung cancer cell line (NCI-H23) and blood cancer cell lines (HEL92.1.7 and U266) were cultured under the protocol provided by each supplier. A medium supplemented with 10 ng/mL of IL-6 was used for LNCaP, a prostate cancer cell line, when treated with a drug. Each type of cells to be used in experiments were sub-cultured in a 96-well plate by counting the exact number of cells using Tali™ Image-based Cytometer (Life Technologies). In a 96-well plate, AGS, HCT116, and DU-145 were employed with 3,000 cells/well; NCI-H23, SW626, Hep3B, ACHN, BT-549, MDA-MB-231, HEL92.1.7, and U266 were employed with 5,000 cells/well; and LNCaP and MDA-MB-468 were employed with 10,000 cells/well. The cells were treated with the compounds listed in Examples which were diluted in various concentrations. Upon completion of the compounds treatment, AGS, HCT116, SW626, DU145, NCI-H23, Hep3B, ACHN, BT-549, LNCaP, HEL92.1.7, and U266 cells were cultured at 37° C. under 5% CO2 for from 72 to 96 hours, and MDA-MB-231 and MDA-MB-468 cells were cultured at 37° C. in air for from 72 to 96 hours. Subsequently, the cells were observed under microscope and drug precipitation and particular findings were investigated and recorded. And then, the 96-well plate was placed at room temperature for 30 minutes, added with 20 μL/well of CellTiter-Glo solution (Cat No. G7573, Promega) and shaken for 10 minutes, followed by being subjected to the measurement using PHERAstar™ microplate reader (BMG LABTECH) according to the supplier's general luminometer protocol. Wells where only culture liquid added without cell plating were used as a negative control, whereas wells where culture liquid containing 0.1% DMSO instead of the compounds listed in Examples were used as a positive control.

STAT3 = target: T1, STAT3 (Homo sapiens, UniProt P40763); test: STAT3 reporter gene assay (luciferase), LNCaP stable cell line (pSTAT3-TA-luc), IL-6 stimulation
T1 construct: plasmid pSTAT3-TA-luc), which contains a stably operating STAT3 promoter; endogenous in cells
T1 sequence (P40763 whole entry): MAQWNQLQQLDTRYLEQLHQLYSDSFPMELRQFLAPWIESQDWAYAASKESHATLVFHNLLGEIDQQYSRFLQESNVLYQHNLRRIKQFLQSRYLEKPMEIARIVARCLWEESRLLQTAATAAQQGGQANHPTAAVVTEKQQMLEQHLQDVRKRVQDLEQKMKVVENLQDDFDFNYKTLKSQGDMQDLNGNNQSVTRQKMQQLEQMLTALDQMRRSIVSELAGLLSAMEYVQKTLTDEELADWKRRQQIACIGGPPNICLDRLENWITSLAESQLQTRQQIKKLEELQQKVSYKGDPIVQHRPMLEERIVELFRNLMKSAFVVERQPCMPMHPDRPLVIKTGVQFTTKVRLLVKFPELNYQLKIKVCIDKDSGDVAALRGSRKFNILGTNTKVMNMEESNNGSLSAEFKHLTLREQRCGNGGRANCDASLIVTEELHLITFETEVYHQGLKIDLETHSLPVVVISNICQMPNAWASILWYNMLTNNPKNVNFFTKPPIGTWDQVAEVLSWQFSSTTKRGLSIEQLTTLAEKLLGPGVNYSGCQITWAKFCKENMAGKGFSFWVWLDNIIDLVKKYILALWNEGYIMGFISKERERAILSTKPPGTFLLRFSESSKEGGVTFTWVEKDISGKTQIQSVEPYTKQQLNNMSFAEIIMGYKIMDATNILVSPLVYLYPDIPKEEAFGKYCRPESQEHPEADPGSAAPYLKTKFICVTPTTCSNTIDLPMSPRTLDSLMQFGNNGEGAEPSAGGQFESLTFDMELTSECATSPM
Summary of the method: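 LNCaP cells stably carrying pSTAT3-TA-luc, in RPMI1640 with 3% DCC-FBS, were treated with compound and then stimulated with 10 ng/mL IL-6 for 24–48 h at 37 °C. Luciferase activity was measured in lysates. A parallel plate measured viability by CellTiter-Glo, with stimulated 0.1% DMSO wells as the positive control.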

| Structure (SMILES) | IC50 (LNCaP) | IC50 (MDA-MB-231) | IC50 (STAT3) |
| --- | --- | --- | --- |
| CC(C)(c1ccc(F)cc1)c1cc(Cl)cc(NC(=O)c2cc3cc(NS(C)(=O)=O)ccc3s2)c1 [Example 40, N-(3-chloro-5-(2-(4-fluorophenyl)propan-2-yl)phenyl)-5-(methylsulfonamido)benzo[b]thiophene-2-carboxamide] | 0.37 µM | 0.006 µM | 0.076 µM |
| CNS(=O)(=O)Nc1ccc2cc(C(=O)Nc3cccc(-c4ccccc4C(F)(F)F)c3)[nH]c2c1 [Example 269] | 4.1 µM | 2.1 µM | 2.3 µM |
| CC(C)(c1cc(Br)cc(NC(=O)c2cc3ccc(NS(C)(=O)=O)cc3[nH]2)c1)c1cc(OC(F)(F)F)ccc1F [Example 23, N-(3-bromo-5-(2-(2-fluoro-5-(trifluoromethoxy)phenyl)propan-2-yl)phenyl)-6-(methylsulfonamido)-1H-indole-2-carboxamide] | 0.17 µM | 0.028 µM | 0.045 µM |
| CC(C)(c1cccc(CN2CCNCC2)c1)c1cc(Br)cc(NC(=O)c2cc3cc(NS(C)(=O)=O)ccc3s2)c1 [Example 118, N-(3-bromo-5-(2-(3-(piperazin-1-ylmethyl)phenyl)propan-2-yl)phenyl)-5-(methylsulfonamido) benzo[b]thiophene-2-carboxamide] | > 10 µM | 8.6 µM | > 10 µM |
| COc1cc(OC(F)(F)F)cc(C(C)c2cccc(NC(=O)c3cc4ccc(NS(C)(=O)=O)cc4[nH]3)c2)c1 (stereo not drawn) [Example 10, N-(3-(1-(3-methoxy-5-(trifluoromethoxy)phenyl)ethyl)phenyl)-6-(methylsulfonamido)-1H-indole-2-carboxamide] | 1.7 µM | 0.18 µM | 0.43 µM |
| C#Cc1cc(NC(=O)c2cc3ccc(NS(C)(=O)=O)cc3[nH]2)cc(C(C)(C)c2ccc(F)cc2)c1 [Example 107, N-(3-ethynyl-5-(2-(4-fluorophenyl)propan-2-yl)phenyl)-6-(methylsulfonamido)-1H-indole-2-carboxamide] | 1.2 µM | 0.29 µM | 0.42 µM |
| Cc1c(C(=O)Nc2cccc(-c3ccc(F)cc3F)c2)sc2cc(NS(C)(=O)=O)ccc12 [Example 241, N-(2′,4′-difluoro-[1,1′-biphenyl]-3-yl)-3-methyl-6-(methylsulfonamido)benzo[b]thiophene-2-carboxamide] | 5.4 µM | 2.7 µM | 1.8 µM |
| CS(=O)(=O)Nc1ccc2cc(C(=O)Nc3cccc(C4(c5ccccc5)CC4)c3)[nH]c2c1 [Example 422, 6-(methylsulfonamido)-N-(3-(1-phenylcyclopropyl)phenyl)-1H-indole-2-carboxamide] | 2.1 µM | 0.54 µM | 0.76 µM |
| COc1cccc(C(C)(C)c2cccc(NC(=O)c3cc4cc(NS(C)(=O)=O)ccc4s3)c2)c1 [Example 38, N-(3-(2-(3-methoxyphenyl)propan-2-yl)phenyl)-5-(methylsulfonamido)benzo[b]thiophene-2-carboxamide] | 0.8 µM | 0.049 µM | 0.1 µM |
| CC(C)(c1cccc(C#N)c1)c1cccc(NC(=O)c2cc3cc(NS(C)(=O)=O)ccc3s2)c1 [Example 224, N-(3-(2-(3-cyanophenyl)propan-2-yl)phenyl)-5-(methylsulfonamido)benzo[b]thiophene-2-carboxamide] | 0.27 µM | 0.033 µM | 0.26 µM |

The next lines start with the values.

| IC50 (LNCaP) | IC50 (MDA-MB-231) | IC50 (STAT3) | Structure (SMILES) |
| --- | --- | --- | --- |
| > 10 µM | 9.9 µM | 0.3 µM | CS(=O)(=O)Nc1ccc2cc(C(=O)Nc3cc(-c4cc[nH]n4)cc(-c4ccc(F)cc4F)c3)[nH]c2c1 [Example 351, N-(2′,4′-difluoro-5-(1H-pyrazol-3-yl)-[1,1′-biphenyl]-3-yl)-6-(methylsulfonamido)-1H-indole-2-carboxamide] |
| 6.7 µM | 1 µM | 5.7 µM | Cc1c(C(=O)Nc2cc(Br)cc(-c3ccc(F)cc3F)c2)sc2ccc(NS(C)(=O)=O)cc12 [Example 311, N-(5-bromo-2′,4′-difluoro-[1,1′-biphenyl]-3-yl)-3-methyl-5-(methylsulfonamido)benzo[b]thiophene-2-carboxamide] |
| 2.4 µM | 0.88 µM | 1.3 µM | CS(=O)(=O)Nc1ccc2cc(C(=O)Nc3cc(CC#N)cc(-c4ccc(F)cc4F)c3)[nH]c2c1 [Example 363, N-(5-(cyanomethyl)-2′,4′-difluoro-[1,1′-biphenyl]-3-yl)-6-(methylsulfonamido)-1H-indole-2-carboxamide] |
| 1.1 µM | 0.028 µM | 0.14 µM | CN(C)c1cc(NC(=O)c2cc3cc(NS(C)(=O)=O)ccc3s2)cc(-c2ccc(F)cc2F)c1 [Example 375, N-(5-(dimethylamino)-2′,4′-difluoro-[1,1′-biphenyl]-3-yl)-5-(methylsulfonamido)benzo[b]thiophene-2-carboxamide] |
| 0.55 µM | 0.062 µM | 0.13 µM | CC(C)(c1ccc(F)cc1)c1cc(Br)cc(NC(=O)c2cc3ccc(NS(C)(=O)=O)cc3[nH]2)c1 [Example 14, N-(3-bromo-5-(2-(4-fluorophenyl)propan-2-yl)phenyl)-6-(methylsulfonamido)-1H-indole-2-carboxamide] |
| 7.8 µM | 1.4 µM | 0.9 µM | CS(=O)(=O)Nc1ccc2cc(C(=O)Nc3cc(-c4ccc(F)cc4F)cc(N4CCCCC4)c3)[nH]c2c1 [Example 371, N-(2′,4′-difluoro-5-(piperidin-1-yl)-[1,1′-biphenyl]-3-yl)-6-(methylsulfonamido)-1H-indole-2-carboxamide] |
| 3.5 µM | 0.46 µM | 0.34 µM | CN(C)c1cc(NC(=O)c2cc3ccc(NS(C)(=O)=O)cc3[nH]2)cc(-c2ccc(F)cc2F)c1 [Example 372, N-(5-(dimethylamino)-2′,4′-difluoro-[1,1′-biphenyl]-3-yl)-6-(methylsulfonamido)-1H-indole-2-carboxamide] |
| > 10 µM | > 10 µM | > 10 µM | CN(C)C(=O)c1cc(NC(=O)c2cc3ccc(NS(C)(=O)=O)cc3[nH]2)cc(-c2ccc(F)cc2F)c1 [Example 319, N-(5-(dimethylcarbamoyl)-2′,4′-difluoro-[1,1′-biphenyl]-3-yl)-6-(methylsulfonamido)-1H-indole-2-carboxamide] |
| 9.2 µM | 3.5 µM | 8.4 µM | CS(=O)(=O)Nc1ccc2cc(C(=O)Nc3cc(-c4ccc(F)cc4F)c4cn[nH]c4c3)[nH]c2c1 [Example 246, N-(4-(2,4-difluorophenyl)-1H-indazol-6-yl)-6-(methylsulfonamido)-1H-indole-2-carboxamide] |
| 4.8 µM | 0.84 µM | 1.1 µM | CNS(=O)(=O)Nc1ccc2cc(C(=O)Nc3cc(Br)cc(-c4ccc(F)cc4F)c3)[nH]c2c1 [Example 307, N-(5-bromo-2′,4′-difluoro-[1,1′-biphenyl]-3-yl)-6-((N-methylsulfamoyl)amino)-1H-indole-2-carboxamide] |
| 3.7 µM | 0.37 µM | 4.5 µM | COc1cc(NC(=O)c2cc3ccc(NS(C)(=O)=O)cc3[nH]2)cc(-c2ccc(F)cc2F)c1 [Example 314, N-(2′,4′-difluoro-5-methoxy-[1,1′-biphenyl]-3-yl)-6-(methylsulfonamido)-1H-indole-2-carboxamide] |
| 3.8 µM | 0.91 µM | 0.33 µM | COc1ccc(-c2cc(NC(=O)c3cc4ccc(NS(C)(=O)=O)cc4[nH]3)cc(-c3ccc(F)cc3F)c2)cn1 [Example 382, N-(2′,4′-difluoro-5-(6-methoxypyridin-3-yl)-[1,1′-biphenyl]-3-yl)-6-(methylsulfonamido)-1H-indole-2-carboxamide] |
| 4.4 µM | 1 µM | 1.5 µM | CNc1cc(NC(=O)c2cc3ccc(NS(C)(=O)=O)cc3[nH]2)cc(-c2ccc(F)cc2F)c1 [Example 373, N-(2′,4′-difluoro-5-(methylamino)-[1,1′-biphenyl]-3-yl)-6-(methylsulfonamido)-1H-indole-2-carboxamide] |

Reference: patent US10562912B2 (C&C Research Laboratories, priority 2013, dated 2020)
